Read-outs that look alike come from different tables or passages of the source.
What was measured:
[1] = target: His-tagged KRAS G12D protein (Homo sapiens, UniProt P01116, G12D); test: KRAS G12D TR-FRET Assay; format: binding
Procedure, shortened: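 His-KRAS G12D (20 nM) was preincubated with titrated compound for 30 min at RT in HEPES pH 7.4 buffer with MgCl2, 10 μM GDP. Biotin-KRPep-2d (20 nM) was then added for 1 h, followed by Eu-anti-His/streptavidin-d2 for 1 h. The 665/615 nm TR-FRET ratio was fitted 4-parameter to give IC50.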

[2] = target: GDP-bound KRAS protein (aa 1-169), containing both G12D and C118A amino acid substitutions (Homo sapiens, UniProt P01116, C118A/G12D); test: KRAS G12D Coupled Nucleotide Exchange Assay; format: biochemical
Description: KRAS G12D Coupled Nucleotide Exchange Assay
Following compound pre-incubation, purified SOS protein (aa 564-1049) and GTP (Roche 10106399001) were added to the assay wells and incubated for an additional 30 min. […] The assay plates were then read on a PerkinElmer EnVision Multilabel Reader, using AlphaScreen® technology, and data were analyzed using a 4-parameter logistic model to calculate IC50 values.

[3] = system: Phosphorylation of ERK1/2 in AsPC-1 cells; test: Phospho-ERK1/2 MSD Assay; format: cell-based
Procedure, shortened: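 Phospho-ERK1/2 was quantified by MSD whole-cell lysate immunoassay in RIPA lysates made with protease/phosphatase inhibitors. A 4-parameter logistic model gave IC50.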

[4] = Homo sapiens, ASPC1, 2 h, read-out: 2 h p-ERK (AsPC-1 cells), IC50, AsPC-1 cells, 2 h compound treatment
[5] = read-out: 2 h p-ERK (AsPC-1 cells), IC50, AsPC-1 cells, 2 h compound treatment

GDP-bound KRAS protein (aa 1-169), containing both G12D and C118A amino acid substitutions, sequence (P01116 1-169 isoform P01116-2 G12D/C118A): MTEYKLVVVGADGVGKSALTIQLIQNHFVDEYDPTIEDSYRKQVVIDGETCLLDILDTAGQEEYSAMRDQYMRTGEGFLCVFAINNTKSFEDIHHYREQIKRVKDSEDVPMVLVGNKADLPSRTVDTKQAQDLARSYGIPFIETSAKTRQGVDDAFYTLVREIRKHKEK
His-tagged KRAS G12D protein, sequence (P01116 1-188 isoform P01116-2 G12D): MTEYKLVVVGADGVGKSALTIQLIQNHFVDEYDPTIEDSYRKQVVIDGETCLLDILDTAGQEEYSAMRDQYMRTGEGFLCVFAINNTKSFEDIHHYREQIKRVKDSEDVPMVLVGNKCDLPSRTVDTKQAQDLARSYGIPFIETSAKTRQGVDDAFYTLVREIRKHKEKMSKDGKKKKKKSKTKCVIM

Compound | IC50 [1] [nM] | IC50 [2] [nM] | IC50 [3, 4] [nM] | IC50 [3, 5] [nM]
C[C@@H]1C[C@@H]1c1c(Cl)cc2[nH]ncc2c1-c1c(F)cc2c(N3CCC[C@]4(CNC(=O)O4)C3)nc(OC[C@@]34CCCN3C[C@H](F)C4)nc2c1F (relative stereo) [Example 111, (5S)-7-(7-(6-Chloro-5~(2-methylcyclopropyl)-1H-indazol-4-yl)-6,8-difluoro-2-(((2R,7aS)-2-fluorotetrahydro-1H-pyrrolizin-7a(5H)-yl)methoxy)quinazolin-4-yl)-1-oxa-3,7-diazaspiro[4.5]decan-2-one 2,2,2-trifluoroacetate] | 5 | 4 | 55 | 
CCc1c(F)ccc2cc(N)cc(-c3ccc4c(N5CCC[C@@](C)(O)C5)nc(OC[C@@]56CCCN5C[C@H](F)C6)nc4c3F)c12 [Example 74, (R)-1-(7-(3-Amino-8-ethyl-7-fluoronaphthalen-1-yl)-8-fluoro-2-(((2R,7aS)-2-fluorotetrahydro-1H-pyrrolizin-7a(5H)-yl)methoxy)quinazolin-4-yl)-3-methylpiperidin-3-ol] | 117 | 10 | 1050 | 
C#Cc1c(F)ccc2cc(O)cc(-c3c(F)cc4c(N5CCC[C@@](C)(O)C5)nc(OC[C@@]56CCCN5C[C@H](F)C6)nc4c3F)c12 (single isomer, unassigned) [Example 13] | 968 | 1254 |  | 205
Oc1cc(-c2c(F)cc3c(N4CCCOCC4)nc(OC[C@@]45CCCN4C[C@H](F)C5)nc3c2F)c2ccccc2c1 [Example 10, 4-(6,8-Difluoro-2-(((2R,7aS)-2-fluorotetrahydro-1H-pyrrolizin-7a(5H)-yl)methoxy)-4-(1,4-oxazepan-4-yl)quinazolin-7-yl)naphthalen-2-ol] | 14 | 15 | 1040 | 
C[C@@]1(O)CCCN(c2nc(OC[C@@]34CCCN3C[C@H](F)C4)nc3c(F)c(-c4cc(N)cc(Cl)c4C(F)(F)F)ccc23)C1 [Example 60, (R)-1-(7-(5-Amino-3-chloro-2-(trifluoromethyl)phenyl)-8-fluoro-2-(((2R,7aS)-2-fluorotetrahydro-1H-pyrrolizin-7a(5H)-yl)methoxy)quinazolin-4-yl)-3-methylpiperidin-3-ol] | 15 | 12 | 1170 | 
CCc1c(F)ccc2cc(O)cc(-c3c(F)cc4c(N5C[C@H]6CC[C@@H](C5)O6)nc(OC[C@@]56CCCN5C[C@H](F)C6)nc4c3F)c12 (relative stereo) [Example 18, rel-4-(4-((1R,5S)-8-Oxa-3-azabicyclo[3.2.1]octan-3-yl)-6,8-difluoro-2-(((2R,7aS)-2-fluorotetrahydro-1H-pyrrolizin-7a(5H)-yl)methoxy)quinazolin-7-yl)-5-ethyl-6-fluoronaphthalen-2-ol] | 46 | 37 | 2890 | 
C/C=C\c1c(Cl)cc2[nH]ncc2c1-c1c(F)cc2c(N3CCC[C@](O)(C(F)F)C3)nc(OC[C@@]34CCCN3C[C@H](F)C4)nc2c1F (single isomer, unassigned) [Example 112] | 5 | 5 | 125 | 
CC1(O)COCCN(c2nc(OC[C@@]34CCCN3C[C@H](F)C4)nc3c(F)c(-c4cc(O)cc5ccc(F)c(F)c45)c(F)cc23)C1 (single isomer, unassigned) [Example 32] | 5 | 3 | 25 | 
C/C=C\c1c(Cl)cc2[nH]ncc2c1-c1c(F)cc2c(N3CCC[C@@](C)(O)C3)nc(OC[C@@]34CCCN3C[C@H](F)C4)nc2c1F (single isomer, unassigned) [Example 120] | 4 | 3 | 35 | 
CCc1c(F)ccc2cc(O)cc(-c3ccc4c(N5CCC[C@@]6(CNC(=O)O6)C5)nc(OC[C@@]56CCCN5C[C@H](F)C6)nc4c3F)c12 (single isomer, unassigned) [Example 89] | 7 | 5 | 14 | 
C[C@@H]1CC1c1c(Cl)cc2[nH]ncc2c1-c1c(F)cc2c(N3CCOCC(O)(CF)C3)nc(OC[C@@]34CCCN3C[C@H](F)C4)nc2c1F (single isomer, unassigned) [Example 99] | 9 | 5 | 93 | 
O=C1NCC2(CCCN(c3nc(OC[C@@]45CCCN4C[C@H](F)C5)nc4c(F)c(-c5cc(O)cc(Cl)c5C5CC5)ccc34)C2)O1 (stereo partly drawn) [Example 83, 7-(7-(3-Chloro-2-cyclopropyl-5-hydroxyphenyl)-8-fluoro-2-(((2R,7a5)-2-fluorotetrahydro-1H-pyrrolizin-7a(5H)-yl)methoxy)quinazolin-4-yl)-1-oxa-3,7-diazaspiro[4.5]decan-2-one] | 10 | 5 | 58 | 
CCC1CCCc2cc(O)cc(-c3ccc4c(N5CCC[C@@](C)(O)C5)nc(OC[C@@]56CCCN5C[C@H](F)C6)nc4c3F)c21 (stereo partly drawn) [Example 95, (3R)-1-(7-(8-Ethyl-3-hydroxy-5,6,7,8-tetrahydronaphthalen-1-yl)-8-fluoro-2-(((2R,7aS)-2-fluorotetrahydro-1H-pyrrolizin-7a(5H)-yl)methoxy)quinazolin-4-yl)-3-methylpiperidin-3-ol] | 12 | 9 | 180 | 
CCc1c(F)ccc2cc(O)cc(-c3ccc4c(N5CCC[C@]6(C5)C[C@@H](O)C6)nc(OC[C@@]56CCCN5C[C@H](F)C6)nc4c3F)c12 [Example 87, (2S,4s)-6-(7-(8-Ethyl-7-fluoro-3-hydroxynaphthalen-1-yl)-6,8-difluoro-2-(((2R,7a.S)-2-fluorotetrahydro-1H-pyrrolizin-7a(5H)-yl)methoxy)quinazolin-4-yl)-6-azaspiro[3.5]nonan-2-ol] | 5 | 3 | 55 | 
C/C=C\c1c(Cl)cc2[nH]ncc2c1-c1c(F)cc2c(N3CCOC[C@@](C)(O)C3)nc(OC[C@@]34CCCN3C[C@H](F)C4)nc2c1F [Example 103, (6S)-4-(7-(6-Chloro-5-((Z)-prop-1-en-1-yl)-1H-indazol-4-yl)-6,8-difluoro-2-(((2R,7aS)-2-fluorotetrahydro-1H-pyrrolizin-7a(5H)-yl)methoxy)quinazolin-4-yl)-6-methyl-1,4-oxazepan-6-ol] | 7 | 5 | 27 | 

Second part, the compound after the results:

IC50 [1] [nM] | IC50 [2] [nM] | IC50 [3, 4] [nM] | IC50 [3, 5] [nM] | Compound
3 | 2 | 59 |  | C/C=C\c1c(Cl)cc2[nH]ncc2c1-c1ccc2c(N3CCC[C@]4(CCO4)C3)nc(OC[C@@]34CCCN3C[C@H](F)C4)nc2c1F [Example 116, (4S)-6-(7-(6-Chloro-5-((Z)-prop-1-en-1-yl)-1H-indazol-4-yl)-8-fluoro-2-(((2R,7aS)-2-fluorotetrahydro-1H-pyrrolizin-7a(5H)-yl)methoxy)quinazolin-4-yl)-1-oxa-6-azaspiro[3.5]nonane]
3 | 4 |  | 10 | CCc1c(F)ccc2cc(O)cc(-c3c(F)cc4c(N5CCCC6(CCO6)C5)nc(OC[C@@]56CCCN5C[C@H](F)C6)nc4c3F)c12 (single isomer, unassigned) [Example 39]
4 | 2 | 7 |  | CCc1c(F)ccc2cc(O)cc(-c3c(F)cc4c(N5CCC[C@]6(CNC(=O)O6)C5)nc(OC[C@@H]5C[C@@H](F)CN5C)nc4c3F)c12 (single isomer, unassigned) [Example 80]
0.3 | 0.5 | 426 |  | CCc1c(F)ccc2cc(O)cc(-c3ccc4c(N5C[C@H](N)CC(F)(F)C5)nc(OC[C@@]56CCCN5C[C@H](F)C6)nc4c3F)c12 [Example 4, 4-(4-((R)-5-Amino-3,3-difluoropiperidin-1-yl)-8-fluoro-2-(((2R,7aS)-2-fluorotetrahydro-1H-pyrrolizin-7a(5H)-yl)methoxy)quinazolin-7-yl)-5-etbyl-6-fluoronaphthalen-2-ol]
2 | 3 | 48 |  | CCc1c(F)ccc2cc(O)cc(-c3ccc4c(N5CCC[C@@](C)(O)C5)nc(OC[C@@]56CCCN5C[C@H](F)C6)nc4c3F)c12 [Example 1, (R)-1-(7-(8-Ethyl-7-fluoro-3-hydroxynaphthalen-1-yl)-8-fluoro-2-(((2R,7aS)-2-fluorotetrahydro-1H-pyrrolizin-7a(5H)-yl)methoxy)quinazolin-4-yl)-3-methylpiperidin-3-ol]
2 | 2 | 58 |  | CCc1c(F)ccc2cc(O)cc(-c3c(F)cc4c(N5CCCC(O)(C(F)F)C5)nc(OC[C@@]56CCCN5C[C@H](F)C6)nc4c3F)c12 (single isomer, unassigned) [Example 20]
3 | 3 | 32 |  | C/C=C\c1c(Cl)cc2[nH]ncc2c1-c1ccc2c(N3CCOC[C@@](C)(O)C3)nc(OC[C@@]34CCCN3C[C@H](F)C4)nc2c1F [Example 105, (6S)-4-(7-(6-Chloro-5-((Z)-prop-1-en-1-yl)-1H-indazol-4-yl)-8-fluoro-2-(((2R,7aS)-2-fluorotetrahydro-1H-pyrrolizin-7a(5H)-yl)methoxy)quinazolin-4-yl)-6-methyl-1,4-oxazepan-6-ol]

From patent US20250179077A1, “QUINAZOLINE COMPOUNDS AND USES THEREOF AS INHIBITORS OF MUTANT KRAS PROTEINS” (AMGEN INC., priority 2022, published 2025)
